Earlier results, collected in patent US6541487B1, “PDE III inhibitors for treating sexual dysfunction” (R.T. Alamo Ventures I, LLC, priority 1998, dated 2003).
Each block holds one molecule with its values, some of them ahead of it.

How the values were obtained:
[1] = system: coronary vascular smooth muscle tissue
[2] = system: plasma high density lipoprotein cholesterol; conditions: in vivo
[3] = following oral administration
[4] = not given; remark: listed apart in the source
corpus cavernosum = conditions: intracavernosal injection; severe atherosclerosis not involved
[5] = for priapism: treatment of impotence

SMILES: CCCc1nn(C)c2c(=O)[nH]c(-c3cc(S(=O)(=O)N4CCN(C)CC4)ccc3OCC)nc12 [Sildenafil]
cyclic AMP levels [1]: no change
cyclic GMP levels [1]: selectively increases
inhibition of PDE III (PDE III): negligible inhibition

SMILES: O=C1CCc2cc(OCCCCc3nnnn3C3CCCCC3)ccc2N1 [cilostazol, 6-[4-(1-cyclohexyl-5-tetrazoyl)butoxy]-1,2,3,4-tetrahydro-2-oxoquinoline]
plasma high density lipoprotein cholesterol [2]: increasing
platelet aggregation (platelet aggregation): suppresses
time of peak plasma concentrations of cilostazol [3]: 2 to 4 h

time of peak plasma concentrations of flosequinan (following oral administration): 1 to 2 h
time of peak metabolite plasma levels (following oral dosage, metabolite of flosequinan): about seven
mean absolute bioavailability (oral, single dose per day of 50 milligrams or 75 milligrams): 72%
solubility in organic solvents [4]: soluble in many organic solvents
solubility in water [4]: water soluble
SMILES: Cn1cc([S+](C)[O-])c(=O)c2ccc(F)cc21 (stereo not drawn) [flosequinan, 7-fluoro-1-methyl-3-methylsulphinyl-4-quinolone]
inhibition of PDE III (PDE III): selective inhibitor

SMILES: COc1ccc(Cc2nccc3cc(OC)c(OC)cc23)cc1OC [papaverine]
erection after injection into a corpus cavernosum (corpus cavernosum): erection sufficient for vaginal penetration
priapism [5]: often results in priapism

SMILES: CC(COc1ccccc1)N(CCCl)Cc1ccccc1 (stereo not drawn) [phenoxybenzamine]
erection after injection into a corpus cavernosum (corpus cavernosum): erection sufficient for vaginal penetration
carcinogenicity ([5]; in vivo): carcinogen
priapism [5]: often results in priapism

SMILES: Cc1ccc(N(CC2=NCCN2)c2cccc(O)c2)cc1 [phentolamine]
erection after injection into a corpus cavernosum (corpus cavernosum): erection sufficient for vaginal penetration
